Assay results as given in patent US9649314B2, “Pyrimido[4,5-b]quinoline-4,5(3H,10H)-diones” (NOVARTIS AG, priority 2012, dated 2017).

Test system: CFTR-Y122X
Test: CFTR-Y122X assay (dual reporter isogenic Hek293 cell lines, Renilla luminescence readthrough)
Format: cell-based
Conditions: Homo sapiens, HEK293; for Emax / AC50: nonsense mutation suppression, 24 h incubation; for Emax: 100% = 14 mM paromomycin, tested up to 100 μM, read-out: Amax [%]
Text: Activity of compounds of the present invention was examined in recombinant, dual reporter isogenic Hek293 cell lines (“CFTR-Y122X assay”). The engineered reporter constructs contained the 18 bp sequence stretch corresponding to a common Y122X PTC mutation in CFTR class I mutant patients (see Sermet-Gaudelus, BMC Medicine, 2007, 5(5)). Instead of a tyrosine (Y) in position 122 of the CFTR protein a TGA stop codon interrupts the open reading frame (Y122X) of the corresponding mRNA. This TGA stop codon triplet (followed by the pyrimidine base cytosine) is permissive to aminoglycoside mediated translational readthrough which served as positive control for high throughput screening. A corresponding TAA stop codon variant and a wildtype non mutated construct was used for confirmation and counter screening. The CFTR sequence was sandwiched between an eGFP reporter, and a triple myc tag sequence fused to a full length Renilla reporter. All sequences, including an intron containing one positioned pre-eGFP (b-globin intron) were cloned in frame. The corresponding expression constructs were stably expressed in the isogenic HEK-R4 cell host (Invitrogen Incorp.) and selected by blasticidin resistance. The isogenic integration of the construct minimizes gene dose effects and improves assay reproducibility. Stably integrated single cell derived clones were selected and characterized for aminoglycoside mediated readthrough. […] Readthrough of Y122X accumulates an intracellular localized fusion protein approximately 65.5 kDa in size as controlled by western blot analysis and immunofluorescence using an anti-renilla antibody. The eGFP reporter pre-PTC mutation serves as visual control for genetic stability of the screening clones and minimizes protein degradation of small fusion protein amounts. In the assay, compound concentration was 10 μM. In miniaturized 1536 well format 2000 cells were dispensed in 4 μl/well and incubated for 24 h at 37° C., 5% CO2. 40 nl compounds were placed on the cells with control wells containing 1 ul Paramomycin and 14.4 mM final concentration. Compounds were incubated for 24 h. Renilla Glo substrate (2.5 ul) was added and plates were centrifuged and processed for luminescence measurement using various readers. Activity calculation was done using the equation: A1 (%)=100*(S−NC)/(AC−NC) where AC, NC and S correspond to active controls (injection of Stimulation buffer=100% stimulation), neutral controls (buffer injection which Iloprost EC10) and screening samples (S). NC corresponds to 0% activity whereas AC is 100% activity (14 mM paromomycin). False positive artefacts were removed in confirmation and validation screening using the same assay format followed by counterscreening using the respective wildtype construct (w/o PTC mutation) cell model. Compounds were tested up to 100 μM compound concentration.

Row | Structure (SMILES) | Emax | AC50 | Emax at 12.5 µM (measured at 12.5 μM compound concentration (footnote b), read-out: Amax [%]: % nonsense mutation suppression relative to paromomycin reference activity)
1 | CC(C)c1nc2c(c(=O)c3ccccc3n2C)c(=O)n1-c1ccccc1Cl [Example 1.16, 3-(2-chlorophenyl)-2-isopropyl-10-methylpyrimido[4,5-b]quinoline-4,5(3H,10H)-dione] | 200% | 9.3 µM | –
2 | CC(C)c1nc2c(c(=O)c3ccccc3n2C)c(=O)n1-c1c(Cl)cccc1Cl [Example 1.17, 3-(2,6-dichlorophenyl)-2-isopropyl-10-methylpyrimido[4,5-b]quinoline-4,5(3H,10H)-dione] | 230% | 8.8 µM | –
3 | Cc1ccccc1-n1c(C(C)C)nc2c(c(=O)c3ccccc3n2C)c1=O [Example 1.18, 2-isopropyl-10-methyl-3-(o-tolyl)pyrimido[4,5-b]quinoline-4,5(3H,10H)-dione] | 248% | 6.9 µM | –
4 | COc1ccccc1-n1c(C(C)C)nc2c(c(=O)c3ccccc3n2C)c1=O [Example 1.19, 2-isopropyl-3-(2-methoxyphenyl)-10-methylpyrimido[4,5-b]quinoline-4,5(3H,10H)-dione] | – | – | 16%
5 | CC(C)c1nc2c(c(=O)c3ccccc3n2C)c(=O)n1-c1ccccc1C(F)(F)F [Example 1.20, 2-isopropyl-10-methyl-3-(2-(trifluoromethyl)phenyl)pyrimido[4,5-b]quinoline-4,5(3H,10H)-dione] | 65% | 13.8 µM | –
6 | CC(C)c1nc2c(c(=O)c3ccccc3n2C)c(=O)n1-c1cccc(Cl)c1 [Example 1.21, 3-(3-chlorophenyl)-2-isopropyl-10-methylpyrimido[4,5-b]quinoline-4,5(3H,10H)-dione] | 167% | 10.2 µM | –
7 | COc1cccc(-n2c(C(C)C)nc3c(c(=O)c4ccccc4n3C)c2=O)c1 [Example 1.22, 2-isopropyl-3-(3-methoxyphenyl)-10-methylpyrimido[4,5-b]quinoline-4,5(3H,10H)-dione] | 23% | 1.9 µM | –
8 | CC(C)c1nc2c(c(=O)c3cc(F)ccc3n2C)c(=O)n1-c1ccccc1 [Example 1.23, 7-fluoro-2-isopropyl-10-methyl-3-phenylpyrimido[4,5-b]quinoline-4,5(3H,10H)-dione] | 139% | 13.4 µM | –
9 | CC(C)c1nc2c(c(=O)c3cc(Cl)ccc3n2C)c(=O)n1-c1ccccc1 [Example 1.24, 7-chloro-2-isopropyl-10-methyl-3-phenylpyrimido[4,5-b]quinoline-4,5(3H,10H)-dione] | 140% | 11.5 µM | –
10 | CC(C)c1nc2c(c(=O)c3cc(Br)ccc3n2C)c(=O)n1-c1ccccc1 [Example 1.25, 7-bromo-2-isopropyl-10-methyl-3-phenylpyrimido[4,5-b]quinoline-4,5(3H,10H)-dione] | 68% | 19.5 µM | –
11 | Cc1ccc2c(c1)c(=O)c1c(=O)n(-c3ccccc3)c(C(C)C)nc1n2C [Example 1.26, 2-isopropyl-7,10-dimethyl-3-phenylpyrimido[4,5-b]quinoline-4,5(3H,10H)-dione] | 254% | 9.6 µM | –
12 | CC(C)c1nc2c(c(=O)c3cccc4c3n2CC4)c(=O)n1-c1ccccc1 [Example 1.27, 9-isopropyl-8-phenyl-1H-pyrimido[4,5-b]pyrrolo[3,2,1-ij]quinoline-6,7(2H,8H)-dione] | 271% | 6.8 µM | –
13 | CC(C)c1nc2c(c(=O)c3ccccc3n2C)c(=O)n1-c1ccccc1 [Example 1.28, 2-isopropyl-10-methyl-3-phenylpyrimido[4,5-b]quinoline-4,5(3H,10H)-dione] | 361% | 7.6 µM | –
14 | CCCCCc1nc2c(c(=O)c3ccccc3n2C)c(=O)n1-c1ccccc1 [Example 1.29, 10-methyl-2-pentyl-3-phenylpyrimido[4,5-b]quinoline-4,5(3H,10H)-dione] | 336% | 7.1 µM | –
15 | CCCc1nc2c(c(=O)c3ccccc3n2C)c(=O)n1-c1ccccc1 [Example 1.30, 10-methyl-3-phenyl-2-propylpyrimido[4,5-b]quinoline-4,5(3H,10H)-dione] | 262% | 6.5 µM | –
16 | CCc1nc2c(c(=O)c3ccccc3n2C)c(=O)n1-c1ccccc1 [Example 1.31, 2-ethyl-10-methyl-3-phenylpyrimido[4,5-b]quinoline-4,5(3H,10H)-dione] | 177% | 10.6 µM | –

Row | Structure (SMILES) | Emax | AC50 | Emax at 12.5 µM (measured at 12.5 μM compound concentration (footnote b), read-out: Amax [%]: % nonsense mutation suppression relative to paromomycin reference activity)
17 | Cn1c2ccccc2c(=O)c2c(=O)n(-c3ccccc3)c(C3CCCCC3)nc21 [Example 1.32, 2-cyclohexyl-10-methyl-3-phenylpyrimido[4,5-b]quinoline-4,5(3H,10H)-dione] | 38% | – | –
18 | CCc1nc2c(c(=O)c3ccccc3n2C)c(=O)n1-c1cc(C)cc(C)c1 [Example 1.33, 3-(3,5-dimethylphenyl)-2-ethyl-10-methylpyrimido[4,5-b]quinoline-4,5(3H,10H)-dione] | 16% | 0.7 µM | –
19 | CCCCCc1nc2c(c(=O)c3ccccc3n2C)c(=O)n1-c1cc(C)cc(C)c1 [Example 1.34, 3-(3,5-dimethylphenyl)-10-methyl-2-pentylpyrimido[4,5-b]quinoline-4,5(3H,10H)-dione] | 16% | 3.2 µM | –
20 | Cc1cc(C)cc(-n2c(C(C)C)nc3c(c(=O)c4ccccc4n3C)c2=O)c1 [Example 1.35, 3-(3,5-dimethylphenyl)-2-isopropyl-10-methylpyrimido[4,5-b]quinoline-4,5(3H,10H)-dione] | 13% | 1.5 µM | –
21 | CCCc1nc2c(c(=O)c3ccccc3n2C)c(=O)n1-c1cc(C)cc(C)c1 [Example 1.36, 3-(3,5-dimethylphenyl)-10-methyl-2-propylpyrimido[4,5-b]quinoline-4,5(3H,10H)-dione] | 9% | 1 µM | –
22 | NCCn1c2ccccc2c(=O)c2c(=O)n(-c3ccccc3)c(C3CCC3)nc21 [Example 1.37, 10-(2-aminoethyl)-2-cyclobutyl-3-phenylpyrimido[4,5-b]quinoline-4,5(3H,10H)-dione] | 348% | 0.9 µM | –
23 | CC(C)c1ccccc1-n1c(C(C)C)nc2c(c(=O)c3ccccc3n2C)c1=O [Example 1.38, 2-isopropyl-3-(2-isopropylphenyl)-10-methylpyrimido[4,5-b]quinoline-4,5(3H,10H)-dione] | 15% | – | –
24 | O=c1c2ccccc2n(CCO)c2nc(C3CCC3)n(-c3ccccc3)c(=O)c12 [Example 1.39, 2-cyclobutyl-10-(2-hydroxyethyl)-3-phenylpyrimido[4,5-b]quinoline-4,5(3H,10H)-dione] | 250% | 3.2 µM | –
25 | CC(C)c1nc2c(c(=O)c3ccccc3n2C)c(=O)n1-c1ccccc1Br [Example 1.40, 3-(2-bromophenyl)-2-isopropyl-10-methylpyrimido[4,5-b]quinoline-4,5(3H,10H)-dione] | 112% | 12.1 µM | –
26 | CC(C)c1nc2c(c(=O)c3ccccc3n2CCN)c(=O)n1-c1ccccc1 [Example 1.41, 10-(2-aminoethyl)-2-isopropyl-3-phenylpyrimido[4,5-b]quinoline-4,5(3H,10H)-dione] | 198% | 19.5 µM | –
27 | CC(C)c1nc2c(c(=O)c3ccccc3n2CCO)c(=O)n1-c1ccccc1 [Example 1.42, 10-(2-hydroxyethyl)-2-isopropyl-3-phenylpyrimido[4,5-b]quinoline-4,5(3H,10H)-dione] | 117% | 15.7 µM | –
28 | COCCn1c2ccccc2c(=O)c2c(=O)n(-c3ccccc3)c(C(C)C)nc21 [Example 1.43, 2-isopropyl-10-(2-methoxyethyl)-3-phenylpyrimido[4,5-b]quinoline-4,5(3H,10H)-dione] | 9% | – | –
29 | CCCn1c2ccccc2c(=O)c2c(=O)n(-c3ccccc3)c(C(C)C)nc21 [Example 1.44, 2-isopropyl-3-phenyl-10-propylpyrimido[4,5-b]quinoline-4,5(3H,10H)-dione] | 118% | 15.2 µM | –
30 | CC(C)c1nc2c(c(=O)c3ccccc3n2C)c(=O)n1C1CCCOC1 (stereo not drawn) [Example 1.45, 2-isopropyl-10-methyl-3-(tetrahydro-2H-pyran-3-yl)pyrimido[4,5-b]quinoline-4,5(3H,10H)-dione] | 389% | 4.7 µM | –
31 | Cn1c2ccccc2c(=O)c2c(=O)n(-c3c(Cl)cccc3Cl)c(C3CCC3)nc21 [Example 1.46, 2-cyclobutyl-3-(2,6-dichlorophenyl)-10-methylpyrimido[4,5-b]quinoline-4,5(3H,10H)-dione] | 25% | – | –
